Laboratory results reported in US7902346B2, “Fusion protein comprising FK506 binding protein and DNA encoding the same” (Industry Academic Cooperation Foundation, Hallym University, priority 2006, dated 2011).

Legend:
cyclooxygenase-2 = experiment: Immunity inhibition effect: lipopolysaccharide-induced cyclooxygenase-2 expression in skin cells, Western blot; type: cell-based, human
Procedure: Thereafter, one of 3 kinds of the fusion protein of FK506BP was added to the each group of cells, respectively. After lipopolysaccharides were added, the expression of cyclooxygenase-2 was monitored via the Western Blot analysis.

epidermis of mouse = experiment: Penetration of fusion protein into epidermis of mouse; settings: in vivo
[1] = test system: human skin primary fibroblast cells; experiment: Intracellular transduction of fusion protein into skin cells, Western blot analysis; type: cell-based
Procedure: The human skin primary fibroblast cells obtained from Catholic University medical school (Korea) were cultured in Dulbecco's modified Eagle's medium (DMEM) containing 20 mM HEPES/NaOH (pH 7.4), 5 mM NaHCO3, 10% fetal bovine serum (FBS) and antibiotics ([…], 100 U/ml penicillin) at 37° C. under a humidified condition of 95% air and 5% CO2. For the transduction of Pep-1-FK506 binding proteins, skin cells were grown about […] to confluence on a 6-well plate. The culture medium was then replaced with fresh solution containing 10% fetal bovine serum. After skin cells were treated with one of 3 kinds of fusion protein of the FK506 binding protein (Pep-1 peptide is bound C-, N- or C-/N-terminus of FK506 binding protein respectively) for 1 hr, the cells were then treated with trypsin-EDTA and washed with phosphate-buffered saline (PBS). Thereafter the cells were harvested for the preparation of cell extracts to perform Western blot analysis.
Western blot analysis was performed to identify intracellular transduction of the fusion protein of FK506 binding protein. The protein was purified in nature form. […]
The transduced Pep-1-FK506BP proteins on the polyacrylamide gel were electrophoretically transferred to a nitrocellulose membrane. […]

Substance: Pep-1-FK506BP: Fusion protein of human FK506 binding protein with Pep-1 peptide (SEQ ID NO: 3) and six histidines at the amino terminus; Seq. No. 7
- apoptosis induced by lipopolysaccharides (cyclooxygenase-2): inhibited apoptosis
- effect on lipopolysaccharide-induced cyclooxygenase-2 expression, treatment together with FK506 (cyclooxygenase-2; fusion protein together with FK506, compared with fusion protein alone): more effective
- expression of cyclooxygenase-2 induced by lipopolysaccharides (cyclooxygenase-2; western blot (FIG. 5), 10 μM fusion protein): inhibited
- penetration into epidermis of mouse (epidermis of mouse): effectively penetrated
- transduction into skin cells (western blot) ([1]; native fusion protein, 0.5-5 μM for 60 min and 5 μM for 10-60 min (FIG. 3)): transduced into skin cells in a time- and concentration-dependent manner
- time in which the protein was transduced ([1]; skin cells treated with 5 μM for 10-60 min (FIG. 3B)): ≤ 10 min
